Legend:
[1] = system: Blumeria graminis f. sp. tritici; test: Fungicidal activity against Blumeria graminis f. sp. tritici on wheat leaves assessed as rate of appressorium formation measured at 0.2 ppm after 168 hr; type: functional
[2] = system: Blumeria graminis f. sp. tritici; test: Fungicidal activity against Blumeria graminis f. sp. tritici on wheat leaves assessed as rate of appressorium formation measured at 0.8 ppm after 168 hr; type: functional
[3] = system: Blumeria graminis f. sp. tritici; test: Fungicidal activity against Blumeria graminis f. sp. tritici on wheat leaves assessed as rate of appressorium formation measured at 3.1 ppm after 168 hr; type: functional
[4] = system: Blumeria graminis f. sp. tritici; test: Fungicidal activity against Blumeria graminis f. sp. tritici on wheat leaves assessed as rate of appressorium formation measured at 12.5 ppm after 168 hr; type: functional
[5] = system: Colletotrichum gloeosporioides; test: Fungicidal activity against Glomerella cingulata assessed as inhibition of mycelial growth measured after 3 to 20 days by agar dilution method; type: functional, organism-based
Fusarium graminearum [6] = test: (§1) Fungicidal activity against Fusarium graminearum assessed as inhibition of mycelial growth measured after 3 to 20 days by agar dilution method; type: functional, organism-based
Fusarium graminearum [7] = test: as §1; type: functional, organism-based; remark: listed apart in the source
Fusarium oxysporum = test: Fungicidal activity against Fusarium oxysporum assessed as inhibition of mycelial growth measured after 3 to 20 days by agar dilution method; type: functional, organism-based
Microdochium nivale = test: Fungicidal activity against Microdochium nivale assessed as inhibition of mycelial growth measured after 3 to 20 days by agar dilution method; type: functional, organism-based
Fulvia fulva = test: Fungicidal activity against Fulvia fulva assessed as inhibition of mycelial growth measured after 3 to 20 days by agar dilution method; type: functional, organism-based
Elsinoe ampelina = test: Fungicidal activity against Elsinoe ampelina assessed as inhibition of mycelial growth measured after 3 to 20 days by agar dilution method; type: functional, organism-based
Diaporthe citri = test: Fungicidal activity against Diaporthe citri assessed as inhibition of mycelial growth measured after 3 to 20 days by agar dilution method; type: functional, organism-based
Discula theae-sinensis = test: Fungicidal activity against Discula theae-sinensis assessed as inhibition of mycelial growth measured after 3 to 20 days by agar dilution method; type: functional, organism-based, Sinodiscula theae-sinensis
Colletotrichum lagenaria = test: Fungicidal activity against Colletotrichum lagenaria assessed as inhibition of mycelial growth measured after 3 to 20 days by agar dilution method; type: functional, organism-based
Bipolaris oryzae = test: Fungicidal activity against Bipolaris oryzae assessed as inhibition of mycelial growth measured after 3 to 20 days by agar dilution method; type: functional, organism-based
Cercospora = test: Fungicidal activity against Cercospora theae assessed as inhibition of mycelial growth measured after 3 to 20 days by agar dilution method; type: functional, organism-based
Cladosporium cucumerinum = test: Fungicidal activity against Cladosporium cucumerinum assessed as inhibition of mycelial growth measured after 3 to 20 days by agar dilution method; type: functional, organism-based
Cercospora kikuchii = test: Fungicidal activity against Cercospora kikuchii assessed as inhibition of mycelial growth measured after 3 to 20 days by agar dilution method; type: functional, organism-based
Cercospora beticola = test: Fungicidal activity against Cercospora beticola assessed as inhibition of mycelial growth measured after 3 to 20 days by agar dilution method; type: functional, organism-based
Botrytis squamosa = test: Fungicidal activity against Botryotinia squamosa assessed as inhibition of mycelial growth measured after 3 to 20 days by agar dilution method; type: functional, organism-based
Botryosphaeria = test: Fungicidal activity against Botryosphaeria sp. assessed as inhibition of mycelial growth measured after 3 to 20 days by agar dilution method; type: functional, organism-based
Botrytis cinerea [8] = test: Fungicidal activity against Botryotinia fuckeliana assessed as inhibition of mycelial growth measured after 3 to 20 days by agar dilution method; type: functional, organism-based
Alternaria alternata = test: Fungicidal activity against Alternaria alternata apple pathotype assessed as inhibition of mycelial growth measured after 3 to 20 days by agar dilution method; type: functional, organism-based
Podosphaera pannosa = test: Fungicidal activity against Podosphaera pannosa in rose assessed as powdery mildew disease control measured after 7 to 10 days by pot test; type: functional
Podosphaera leucotricha = test: Fungicidal activity against Podosphaera leucotricha in apple assessed as powdery mildew disease control measured after 7 to 10 days by pot test; type: functional
Erysiphe necator = test: Fungicidal activity against Erysiphe necator in grape assessed as powdery mildew disease control measured after 7 to 10 days by pot test; type: functional
[9] = system: Blumeria graminis f. sp. tritici; test: Fungicidal activity against Blumeria graminis f. sp. tritici in wheat assessed as powdery mildew disease control measured after 7 to 10 days by pot test; type: functional
Podosphaera aphanis = test: Fungicidal activity against Podosphaera aphanis var. aphanis in strawberry assessed as powdery mildew disease control measured after 7 to 10 days by pot test; type: functional
Leveillula taurica = test: Fungicidal activity against Leveillula taurica in sweet pepper assessed as powdery mildew disease control measured after 7 to 10 days by pot test; type: functional; details: Phyllactinia taurica
Podosphaera fusca = test: Fungicidal activity against Sphaerotheca cucurbitae in cucumber assessed as powdery mildew disease control measured after 7 to 10 days by pot test; type: functional
Venturia inaequalis = test: Fungicidal activity against Venturia inaequalis on apple (Malus pumila var. domestica, cv. Rall's Janett) assessed as scab control at 200 ppm measured after 5 to 10 days; type: functional
Plasmopara viticola = test: Fungicidal activity against Plasmopara viticola on grape (Vitis vinifera, cv.Kousyu) assessed as downy mildew disease control at 200 ppm measured after 5 to 10 days; type: functional
Phytophthora infestans = test: Fungicidal activity against Phytophthora infestans on tomato (Lycopersicon esculentum, cv. Regina) assessed as late blight disease control at 200 ppm measured after 5 to 10 days; type: functional
[10] = system: Blumeria graminis f. sp. tritici; test: Fungicidal activity against Blumeria graminis f. sp. tritici on wheat (Triticum aestivum, cv. Chihoku) assessed as powdery mildew disease control at 50 ppm measured after 5 to 10 days; type: functional
Botrytis cinerea [11] = test: Fungicidal activity against Botryotinia fuckeliana on kidney bean (Phaseolus vulgaris, cv. Nagauzura) assessed as grey mold disease control at 200 ppm measured after 5 to 10 days; type: functional
[12] = system: Blumeria graminis f. sp. tritici; test: Fungicidal activity against Blumeria graminis f. sp. tritici on wheat (Triticum aestivum, cv. Chihoku) assessed as powdery mildew disease control at 0.01 ppm measured after 5 to 10 days; type: functional
[13] = system: Blumeria graminis f. sp. tritici; test: Fungicidal activity against Blumeria graminis f. sp. tritici on wheat (Triticum aestivum, cv. Chihoku) assessed as powdery mildew disease control at 0.05 ppm measured after 5 to 10 days; type: functional
[14] = system: Blumeria graminis f. sp. tritici; test: Fungicidal activity against Blumeria graminis f. sp. tritici on wheat (Triticum aestivum, cv. Chihoku) assessed as powdery mildew disease control at 0.2 ppm measured after 5 to 10 days; type: functional
[15] = system: Blumeria graminis f. sp. tritici; test: Fungicidal activity against Blumeria graminis f. sp. tritici on wheat (Triticum aestivum, cv. Chihoku) assessed as powdery mildew disease control at 0.8 ppm measured after 5 to 10 days; type: functional
[16] = system: Blumeria graminis f. sp. tritici; test: Fungicidal activity against Blumeria graminis f. sp. tritici on wheat (Triticum aestivum, cv. Chihoku) assessed as powdery mildew disease control at 3.1 ppm measured after 5 to 10 days; type: functional
[17] = system: Blumeria graminis f. sp. tritici; test: Fungicidal activity against Blumeria graminis f. sp. tritici on wheat (Triticum aestivum, cv. Chihoku) assessed as powdery mildew disease control at 12.5 ppm measured after 5 to 10 days; type: functional
[18] = system: Blumeria graminis f. sp. tritici; test: Fungicidal activity against Blumeria graminis f. sp. tritici on wheat (Triticum aestivum, cv. Chihoku) assessed as powdery mildew disease control at 200 ppm measured after 5 to 10 days; type: functional

O=C(Cc1ccccc1)N/C(=N\OCC1CC1)c1c(C(F)(F)F)ccc(F)c1F [CYFLUFENAMID]
inhibition at 0.2 ppm [1]: 80.1%
inhibition at 0.8 ppm [2]: 99.4%
inhibition at 3.1 ppm [3]: 99.9%
inhibition at 12.5 ppm [4]: 100%
EC50 [5]: > 100 ppm
EC50 (Fusarium graminearum [6]): > 100 ppm
EC50 (Fusarium graminearum [7]): > 100 ppm
EC50 (Fusarium oxysporum): > 100 ppm
EC50 (Microdochium nivale): 0.3 ppm
EC50 (Fulvia fulva): > 100 ppm
EC50 (Elsinoe ampelina): 5 ppm
EC50 (Diaporthe citri): 6 ppm
EC50 (Discula theae-sinensis): > 100 ppm
EC50 (Colletotrichum lagenaria): > 100 ppm
EC50 (Bipolaris oryzae): > 100 ppm
EC50 (Cercospora): > 100 ppm
EC50 (Cladosporium cucumerinum): > 100 ppm
EC50 (Cercospora kikuchii): 1 ppm
EC50 (Cercospora beticola): 0.3 ppm
EC50 (Botrytis squamosa): > 100 ppm
EC50 (Botryosphaeria): 0.07 ppm
EC50 (Botrytis cinerea [8]): > 100 ppm
EC50 (Alternaria alternata): > 100 ppm
MIC (Podosphaera pannosa): < 1.6 µg/mL
MIC (Podosphaera leucotricha): < 1.6 µg/mL
MIC (Erysiphe necator): < 1.6 µg/mL
MIC [9]: < 0.8 µg/mL
MIC (Podosphaera aphanis): < 0.8 µg/mL
MIC (Leveillula taurica): < 0.8 µg/mL
MIC (Podosphaera fusca): < 0.8 µg/mL
Efficacy (Venturia inaequalis): 0%
Efficacy (Plasmopara viticola): 0%
Efficacy (Phytophthora infestans): 0%
Efficacy [10]: 100%
Efficacy (Botrytis cinerea [11]): 0%
Efficacy [12]: 6%
Efficacy [13]: 30%
Efficacy [14]: 66%
Efficacy [15]: 100%
Efficacy [16]: 100%
Efficacy [17]: 100%
Efficacy [18]: 100%

Source: ChEMBL document CHEMBL3045398, “Fungicidal activities of cyflufenamid against various plant-pathogenic fungi” (J Pestic Sci, 2006)
